Data: patent US11754498B2, “Single AIEgen for multiple tasks: imaging of dual organelles and evaluation of cell viability” (THE HONG KONG UNIVERSITY OF SCIENCE AND TECHNOLOGY, priority 2019, dated 2023)

Key:
live HeLa cells = assay: CLSM imaging of live HeLa cells, in situ emission spectra and time tracking; assay type: cell-based
Method: Bioimaging experiments were then carried out in live HeLa cells. Based on the spectra imaging function of confocal laser scanning microscope (CLSM), the real color images of live HeLa cells stained with TVQE and in situ emission spectra were obtained (FIGS. 14A-14C and FIG. 15A). […] As designed, TVQE can be hydrolyzed by esterase to provide TVQ. It was speculated that the red emission came from TVQE while the blue emission was from the hydrolysate TVQ.
The in situ imaging performance of TVQE in live HeLa cells at different time points was then tracked and investigated (FIGS. 16A-16B and FIGS. 17A-17B). It could be observed that TVQE first stained mitochondria and emitted red fluorescence. Then, after about 5 min, lipid droplets in the blue channel were clearly illuminated. It should be noted that the fluorescence intensity in the red channel increased at the beginning, reached maximum at about 12 min, then decreased gradually. The fluorescence in the blue channel increased with increased time. […] In addition, the lipophilic hydrolysate tended to accumulate in lipid droplets gradually.

[1] = absorption and fluorescence (FL) spectra, photophysical properties; assay type: physicochemical
Method: The absorption and fluorescence (FL) spectra of TVQE and TVQ in different solvents were tested and the results are shown in FIGS. 11A-11D and FIGS. 12A-12D.
Furthermore, fluorescence spectra of TVQE in EtOH and EtOH/hexane mixtures with different hexane fraction were shown in FIG. 11A. In pure EtOH, TVQE was weakly emissive with a quantum yield of 0.7%. With the increase of hexane volume content, the FL intensity increased gradually, accompanied with blue-shift in FL maximum from 673 nm to 637 nm, shown in FIG. 11B. When fH=90%, FL intensity reached the maximum with a quantum yield of 3% due to the formation of aggregates, indicating the AIE feature of TVQE. The FL intensity decreased when fH increased to 95%, probably due to the change of the morphology and size of the aggregates. […]

HeLa cells [2] = assay: standard MTT assay, cytotoxicity in HeLa cells; assay type: cell-based; conditions: incubation at different concentrations for 24 h
Source text: Before bioimaging, the cytotoxicity of TVQE was first studied by standard MTT assay in HeLa cells.

[3] = test system: lipid droplets in live HeLa cells; assay: co-stain with lipid-droplet probe Nile Red, CLSM; assay type: cell-based; conditions: 2 μM TVQE, 1 μM Nile Red
Method: (§1) To further confirm the staining location of TVQE, co-stain experiments with commercialized mitochondrial probe MitoTracker Deep Red FM (MTDR) and lipid-droplet probe Nile Red were performed.

HeLa cells [4] = assay: flow cytometry of live, early apoptotic, late apoptotic and dead cells stained by TVQE; assay type: cell-based
Method: As esterase activity can reflect cell viability, an investigation was conducted to determine whether TVQE could be used to evaluate cell viability. […] In apoptotic cells, the esterase activity decreased, so that the emission in the blue channel was much weaker than that in live cells. When HeLa cells were treated with 10 mM H2O2 for 1 h and 4.5 h, early and late apoptotic HeLa cells could be clearly and differentially visualized (FIGS. 18 and 19). […] However, nearly no blue-emissive fluorescence signal but strong red emission was detected in dead cells because of the inactivated esterase activity. […] The fluorescence changes in both blue and red channels of cells in different states were obtained from flow cytometry (Becton Dickinson FACSAria Mu). Referring to FIG. 20C, numerical values in the cyan region, e.g., mean fluorescent intensity values around 3.2×10^4 and 650 in the blue and red channels, respectively correspond to cells that were alive, numerical values in the red region, e.g., mean fluorescence intensity values around 1.4×10^4 and 780 in the blue and red channels, respectively, correspond to cells in early apoptotic stages, numerical values in the orange region, e.g., mean fluorescence intensity values around 1700 and 4200 in the blue and red channels, respectively, correspond to cells in the late apoptotic stages, and numerical values in the green region, e.g., mean fluorescence intensity values around 780 and 1.5×10^4 in the blue and red channels, respectively, correspond to cells that were dead.
Flow cytometry is a widely used tool for statistical analysis. It has different laser sources and is suitable for simultaneous detection of multichannel fluorescence signals. A flow cytometry assay was performed to monitor the fluorescence changes in both red and blue channels of cells at different physiological stages. […] Compared with live cells, the blue emission in early apoptotic cells was a little weaker. […] The red emission in dead cells was stronger in comparison with late apoptotic cells.

esterase = assay: FL spectra of TVQE treated with active esterase in PBS; assay type: biochemical; conditions: room temperature
Method: To get insight into the mechanism of TVQE to esterase, the FL spectra of TVQE treated with active esterase in PBS at room temperature were measured and shown in FIG. 11D. At the beginning, only a weak emission peak at around 700 nm was detected. As treatment time progressed, the fluorescence at about 520 nm increased gradually, which was consistent with the FL spectra of TVQ in PBS, depicted in FIG. 12B.

[5] = test system: mitochondria in live HeLa cells; assay: co-stain with mitochondrial probe MitoTracker Deep Red FM (MTDR), CLSM; assay type: cell-based; conditions: 2 μM TVQE, 0.2 μM MTDR
Method: as §1

[6] = live HeLa cells stained with 2 μM TVQE, in situ emission spectra
[7] = cells in early apoptotic stages (10 mM H2O2)
[8] = cells in the late apoptotic stages (10 mM H2O2)

- Stokes shift ([1]; EtOH): 123 nm
- Φ (fluorescence quantum yield) ([1]; EtOH): 0.7%
- ε (molar absorptivity at maximum absorption wavelength) ([1]; EtOH): 18900 M⁻¹ cm⁻¹
- λabs (absorption maximum) ([1]; EtOH): 548 nm
- λem (emission maximum) ([1]; EtOH): 671 nm
- Stokes shift ([1]; Hexane/EtOH = 9/1): 131 nm
- ε (molar absorptivity at maximum absorption wavelength) ([1]; Hexane/EtOH = 9/1): 18800 M⁻¹ cm⁻¹
- λabs (absorption maximum) ([1]; Hexane/EtOH = 9/1): 527 nm
- λem (emission maximum) ([1]; Hexane/EtOH = 9/1): 656 nm
- Φ (fluorescence quantum yield) ([1]; Hexane/EtOH = 9/1 (fH=90%)): 3%
- Stokes shift ([1]; THF): 156 nm
- Φ (fluorescence quantum yield) ([1]; THF): 1.3%
- ε (molar absorptivity at maximum absorption wavelength) ([1]; THF): 16600 M⁻¹ cm⁻¹
- λabs (absorption maximum) ([1]; THF): 522 nm
- λem (emission maximum) ([1]; THF): 678 nm
- Stokes shift ([1]; Tol): 125 nm
- Φ (fluorescence quantum yield) ([1]; Tol): 6.6%
- ε (molar absorptivity at maximum absorption wavelength) ([1]; Tol): 17300 M⁻¹ cm⁻¹
- λabs (absorption maximum) ([1]; Tol): 534 nm
- λem (emission maximum) ([1]; Tol): 659 nm
- fluorescence emission ([1]; solid state): 739 nm
- quantum yield ([1]; solid state): 2.3%
- fluorescence increasing gradually as treatment time progressed (esterase; esterase in PBS): about 520 nm
- emission peak at the beginning (esterase; esterase in PBS, beginning of treatment): around 700 nm
SMILES: CC(=O)Oc1ccc(C[n+]2ccc(/C=C/c3ccc(N(c4ccccc4)c4ccccc4)cc3)c3ccccc32)cc1 [TVQE]
- blue emission inside cells (live HeLa cells; [6]): 480 nm
- red emission inside cells (live HeLa cells; [6]): 650 nm
- time after which lipid droplets in the blue channel were clearly illuminated (live HeLa cells; live HeLa cells, 2 μM TVQE): about 5 min
- time at which fluorescence intensity in the red channel reached maximum (live HeLa cells; live HeLa cells, 2 μM TVQE): about 12 min
- viability of HeLa cells (HeLa cells [2]): higher than 85%
- co-localization coefficient with Nile Red [3]: 0.87
- mean fluorescence intensity, blue channel (HeLa cells [4]; [7]): around 1.4×10^4
- mean fluorescence intensity, red channel (HeLa cells [4]; [7]): around 780
- mean fluorescence intensity, blue channel (HeLa cells [4]; [8]): around 1700
- mean fluorescence intensity, red channel (HeLa cells [4]; [8]): ~4200
- mean fluorescent intensity, blue channel (HeLa cells [4]; cells that were alive): around 3.2×10^4
- mean fluorescent intensity, red channel (HeLa cells [4]; cells that were alive): ~650
- mean fluorescence intensity, blue channel (HeLa cells [4]; cells that were dead): around 780
- mean fluorescence intensity, red channel (HeLa cells [4]; cells that were dead): ~1.5×10^4
- hydrolysis by esterase (esterase; active esterase (1 U/mL) in PBS): could be hydrolyzed to TVQ with blue emission by esterase
- co-localization coefficient with MTDR [5]: 0.9
